Consider 15 compounds from PubChem BioAssay (NCI).

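Values below derive from 48-hour exposures of cells grown in 96-well plates, with endpoints linearly interpolated between the two concentrations bracketing the appropriate inhibition level. The concentration for 50% growth inhibition is given as GI50. At the TGI there is no net growth.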

Test systems include T-47D breast; HS 578T breast; MDA-MB-435; BT-549 breast; MDA-MB-231 breast; DU-145 prostate.
Holding throughout (experiment): DTP human tumour cell line panel, 48 h

Turning to `CCOC(=O)c1cc2c(OC)cc(OC)cc2oc1=O`, the total growth inhibition concentration (TGI) in the experiment with T-47D breast, with HS 578T breast, with MDA-MB-435, in the experiment with BT-549 breast, with MDA-MB-231 breast and with DU-145 prostate was greater than 100 µM throughout.
Regarding `Cc1cccc2c1NC(=O)[C@@H](NC(=O)[C@H](CCC(F)(F)F)[C@H](CCC(F)(F)F)C(N)=O)N=C2c1cccc(F)c1`, the GI50 in the experiment with T-47D breast is 34.5 µM; with HS 578T breast, 20.4 µM; in the experiment with MDA-MB-435, greater than 100 µM; in the experiment with BT-549 breast it was 16.2 µM; in the experiment with MDA-MB-231 breast, 18.2 µM; in the experiment with DU-145 prostate it was 71.4 µM. In addition, the total growth inhibition concentration (TGI) in the experiment with T-47D breast is greater than 100 µM; in the experiment on HS 578T breast, 64 µM; with MDA-MB-435, greater than 100 µM; in the experiment with BT-549 breast it was 66.1 µM; in the experiment with MDA-MB-231 breast, 59.1 µM; in the experiment with DU-145 prostate it was greater than 100 µM.
Consider `C#CCOCCCC(=O)O`, for which the TGI in the experiment with T-47D breast, with BT-549 breast, in the experiment on MDA-MB-231 breast and in the experiment on DU-145 prostate was greater than 100 µM in each case.
For `COc1cc(C)cc(C(=O)OCc2ccccc2)c1C1=C(Cl)C(=O)C(Cl)=CC1=O`, the TGI in the experiment on T-47D breast, with HS 578T breast, in the experiment on MDA-MB-435, in the experiment with BT-549 breast, with MDA-MB-231 breast and in the experiment on DU-145 prostate was greater than 10 µM throughout.
In the case of `O=C1/C(=C\c2ccc(Cl)cc2)CN(C(=O)c2ccccc2)C/C1=C\c1ccc(Cl)cc1`, the GI50 in the experiment on T-47D breast is 4.33 µM; in the experiment with HS 578T breast, 2.92 µM; in the experiment on MDA-MB-435 it was 2.58 µM; with BT-549 breast, 2.89 µM; in the experiment on MDA-MB-231 breast, 2.47 µM; in the experiment with DU-145 prostate it was 4.12 µM. For the same compound, the TGI in the experiment on T-47D breast was greater than 100 µM; in the experiment on HS 578T breast it was 9.17 µM; with MDA-MB-435 it was 8.04 µM; with BT-549 breast, 7.17 µM; in the experiment with MDA-MB-231 breast, 6.9 µM; with DU-145 prostate, greater than 56.4 µM.
With `CC(=O)N[C@@H](Cc1ccc(OP(=O)(O)O)cc1)C(=O)N[C@H]1CCC(=O)N2CCC[C@@H](C(=O)NCc3cccc4ccccc34)N2C1=O`, the GI50 in the experiment with T-47D breast, with HS 578T breast, with MDA-MB-435, in the experiment on BT-549 breast, in the experiment with MDA-MB-231 breast and with DU-145 prostate was greater than 25 µM throughout. The TGI in the experiment with T-47D breast, in the experiment on HS 578T breast, in the experiment on MDA-MB-435, in the experiment with BT-549 breast, with MDA-MB-231 breast and in the experiment on DU-145 prostate was greater than 25 µM throughout.
On to `CSc1nc(SC)c2c(C)cn(Cc3ccccc3)c2n1`, for which the TGI with T-47D breast, with HS 578T breast, with MDA-MB-435, in the experiment on BT-549 breast, in the experiment with MDA-MB-231 breast and in the experiment on DU-145 prostate was greater than 100 µM each time.
For `O=P1(O)c2ccccc2CSCc2ccccc21`, the TGI in the experiment on T-47D breast, in the experiment with HS 578T breast, in the experiment on MDA-MB-435, in the experiment with BT-549 breast, in the experiment with MDA-MB-231 breast and in the experiment on DU-145 prostate was greater than 100 µM each time.
On to `CCOC(=O)Nc1ccc2c3c(cccc13)-c1ccccc1-2`, for which the GI50 in the experiment with T-47D breast is 2.57 µM; with HS 578T breast, 3.91 µM; in the experiment with MDA-MB-435 it was 0.862 µM; in the experiment with BT-549 breast, greater than 100 µM; with MDA-MB-231 breast, 2.58 µM; in the experiment with DU-145 prostate it was 7.56 µM. Further, the TGI with T-47D breast is greater than 100 µM; in the experiment with HS 578T breast, greater than 100 µM; in the experiment on MDA-MB-435 it was 3.54 µM; in the experiment on BT-549 breast it was greater than 100 µM; in the experiment with MDA-MB-231 breast, greater than 100 µM; in the experiment on DU-145 prostate it was greater than 100 µM.
In the case of `COc1ccc(C(=O)O[C@@H]2CCN3CC[C@H](C)[C@H]23)cc1`, the TGI with T-47D breast, in the experiment with HS 578T breast, with MDA-MB-435, in the experiment on BT-549 breast, with MDA-MB-231 breast and in the experiment on DU-145 prostate was greater than 100 µM in each case.
In the case of `CN(CCNc1ccc(C(=N)N)cc1)c1ccc(C(=N)N)cc1`, the GI50 was 23.9 µM in the experiment on T-47D breast; 16.1 µM in the experiment on HS 578T breast; 66.3 µM in the experiment on MDA-MB-435; 13.8 µM with BT-549 breast; greater than 100 µM with MDA-MB-231 breast; 19.2 µM in the experiment with DU-145 prostate. Besides, the TGI in the experiment on T-47D breast was greater than 100 µM; with HS 578T breast it was 51.9 µM; in the experiment on MDA-MB-435, greater than 100 µM; with BT-549 breast it was 38.4 µM; in the experiment with MDA-MB-231 breast, greater than 100 µM; in the experiment with DU-145 prostate, greater than 100 µM.
As to `Cc1cn2c(/C=N/NC3=NCCN3)c(-c3ccc(Cl)c([N+](=O)[O-])c3)nc2s1`, the GI50 in the experiment with T-47D breast was 1.75 µM; with HS 578T breast it was 1.5 µM; with BT-549 breast, 0.892 µM; in the experiment with MDA-MB-231 breast, 0.778 µM; in the experiment with DU-145 prostate, 0.789 µM. For the same compound, the TGI in the experiment with T-47D breast is greater than 50 µM; with HS 578T breast, 3.97 µM; in the experiment with BT-549 breast, 1.77 µM; with MDA-MB-231 breast, 1.57 µM; in the experiment on DU-145 prostate, 1.89 µM.
With `COc1c(O)cc2c(c1CC=C(C)C)OC(=O)c1c(cc(O)c(CC=C(C)C)c1O)O2`, the GI50 in the experiment on T-47D breast was 4.48 µM; with HS 578T breast it was 2.96 µM; with MDA-MB-435, 4.11 µM; with MDA-MB-231 breast, 4.23 µM; in the experiment on DU-145 prostate it was 4.18 µM. Also, the TGI with T-47D breast was found to be 8.72 µM; in the experiment with HS 578T breast it was 7.4 µM; in the experiment on MDA-MB-435, 7.94 µM; in the experiment with MDA-MB-231 breast, 8.46 µM; in the experiment on DU-145 prostate it was 7.62 µM.
`Nc1cc2c(c3ccccc13)C(CCl)CN2C(=O)c1cc2cc(NC(=O)c3cc4ccccc4o3)ccc2[nH]1` (stereo unspecified): the GI50 in the experiment with T-47D breast, in the experiment on MDA-MB-435 and with MDA-MB-231 breast was greater than 0.11 µM each time. The TGI in the experiment on MDA-MB-435 is less than 0.11 µM; with BT-549 breast, 0.00708 µM; in the experiment with MDA-MB-231 breast, greater than 1100 µM; with DU-145 prostate, 142 µM.
For the compound `O=C(O)c1ccc(NCn2nc(-c3ccccc3O)oc2=S)cc1O`, the GI50 in the experiment with T-47D breast was greater than 100 µM; with HS 578T breast, greater than 100 µM; in the experiment on MDA-MB-435 it was greater than 100 µM; in the experiment with BT-549 breast, greater than 100 µM; in the experiment on MDA-MB-231 breast, 38.9 µM. Moreover, the TGI in the experiment on T-47D breast, in the experiment on HS 578T breast, with MDA-MB-435, in the experiment with BT-549 breast and in the experiment on MDA-MB-231 breast was greater than 100 µM in each case.

In general, TGI refers to the concentration giving total growth inhibition. A high value points to lower sensitivity of the cells. In general, GI50 refers to the concentration giving 50% growth inhibition.
